Reference: PubChem BioAssay AID248 (DTP/NCI, 2004)
“And” between values parts separate entries of the source, which are not always exact repeats. Identical values can stand only once. Inconclusive results and toxic doses are left out.

Tested on: L1210 leukemia ip in BDF1 mice, survival T/C
Experiment: NCI In Vivo Anticancer Drug Screen. Data for tumor model L1210 Leukemia (intraperitoneal) in B6D2F1 (BDF1) mice
Conditions: endpoint: mean survival time, higher = longer survival
Procedure, shortened: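 Antitumor effect is assessed in tumor-bearing animals. Survival in the compound arm is compared with a vehicle-dosed control arm and expressed as their quotient.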

[1] = dose: 100.0 mg/kg/injection, schedule: Q04DX003 (ip), vehicle: saline with Tween-80
[2] = dose: 200.0 mg/kg/injection, schedule: Q04DX003 (ip), vehicle: saline with Tween-80
[3] = dose: 400.0 mg/kg/injection, schedule: Q04DX003 (ip), vehicle: saline with Tween-80
[4] = dose: 100.0 mg/kg/injection, schedule: Q01DX001 (ip), vehicle: Klucel (hydroxypropylcellulose) (HPC)
[5] = dose: 200.0 mg/kg/injection, schedule: Q01DX001 (ip), vehicle: Klucel (hydroxypropylcellulose) (HPC)
[6] = dose: 400.0 mg/kg/injection, schedule: Q01DX001 (ip), vehicle: Klucel (hydroxypropylcellulose) (HPC)
[7] = dose: 250.0 mg/kg/injection, schedule: Q01DX Z (ip), vehicle: carboxymethylcellulose (CMC)
[8] = dose: 100.0 mg/kg/injection, schedule: Q01DX009 (ip), vehicle: Klucel (hydroxypropylcellulose) (HPC)
[9] = dose: 100.0 mg/kg/injection, schedule: Q04DX003 (ip), vehicle: Klucel (hydroxypropylcellulose) (HPC)
[10] = dose: 200.0 mg/kg/injection, schedule: Q04DX003 (ip), vehicle: Klucel (hydroxypropylcellulose) (HPC)

## COc1ccc(/C=C(/C(=O)O)c2ccc(OC)cc2)cc1
dose: 100.0 mg/kg/injection, schedule: Q04DX003 (ip), vehicle: other
  T/C: 98 % of control
dose: 200.0 mg/kg/injection, schedule: Q04DX003 (ip), vehicle: other
  T/C: 95 % of control
dose: 400.0 mg/kg/injection, schedule: Q04DX003 (ip), vehicle: other
  T/C: 95 % of control

## O=NN(CCCl)C(=O)Nc1cccc([N+](=O)[O-])c1
dose: 12.0 mg/kg/injection, schedule: Q01DX001 (ip), vehicle: carboxymethylcellulose (CMC)
  T/C: 152 % of control
dose: 18.0 mg/kg/injection, schedule: Q01DX001 (ip), vehicle: carboxymethylcellulose (CMC)
  T/C: 156 % of control
dose: 26.0 mg/kg/injection, schedule: Q01DX001 (ip), vehicle: carboxymethylcellulose (CMC)
  T/C: 176 % of control
dose: 40.0 mg/kg/injection, schedule: Q01DX001 (ip), vehicle: carboxymethylcellulose (CMC)
  T/C: 174 % of control
dose: 60.0 mg/kg/injection, schedule: Q01DX001 (ip), vehicle: carboxymethylcellulose (CMC)
  T/C: 91 % of control

## COc1ccc(OC)c(/C=N/NC(=O)C[N+](C)(C)C)c1
dose: 50.0 mg/kg/injection, schedule: Q01DX009 (ip), vehicle: saline with Tween-80
  T/C: 88 % of control
dose: 100.0 mg/kg/injection, schedule: Q01DX009 (ip), vehicle: saline with Tween-80
  T/C: 86 % of control

## O=C(Cc1cccc2ccccc12)OCCOCCCl
dose: 100.0 mg/kg/injection, schedule: Q04DX002 (ip), vehicle: saline with Tween-80
  T/C: 101 % of control
dose: 200.0 mg/kg/injection, schedule: Q04DX002 (ip), vehicle: saline with Tween-80
  T/C: 104 % of control
dose: 400.0 mg/kg/injection, schedule: Q04DX002 (ip), vehicle: saline with Tween-80
  T/C: 117 % of control

## Nc1[nH]c(=O)nc2nc(I)[nH]c12
dose: 100.0 mg/kg/injection, schedule: Q01DX001 (ip), vehicle: carboxymethylcellulose (CMC)
  T/C: 97 % of control
dose: 200.0 mg/kg/injection, schedule: Q01DX001 (ip), vehicle: carboxymethylcellulose (CMC)
  T/C: 100 % of control
dose: 400.0 mg/kg/injection, schedule: Q01DX001 (ip), vehicle: carboxymethylcellulose (CMC)
  T/C: 113 % of control

## CC(N)C(O)C(Cl)(Cl)Cl (stereo unspecified)
[1]
  T/C: 92 % of control
[2]
  T/C: 92 % of control
[3]
  T/C: 90 % of control

## CCc1c(Nc2ccccc2Cl)nc(N)[nH]c1=O
dose: 100.0 mg/kg/injection, schedule: Q01DX Z (ip), vehicle: methylcellulose (MC)
  T/C: 95 % of control

## CCS(=O)(=O)C(S(=O)(=O)CC)S(=O)(=O)CC
[4]
  T/C: 102 % of control
[5]
  T/C: 91 % of control
[6]
  T/C: 96 % of control

## Cc1ccccc1SC(Sc1ccccc1C)(Sc1ccccc1C)Sc1ccccc1C
[4]
  T/C: 98 % of control
[5]
  T/C: 88 % of control
[6]
  T/C: 95 % of control

## O=C(Nc1ccc(NC(=O)c2ccc(C3=NCCN3)cc2)cc1)Nc1ccc(C2=NCCN2)cc1
dose: 6.25 mg/kg/injection, schedule: Q01DX Z (ip), vehicle: carboxymethylcellulose (CMC)
  T/C: 117 % of control
dose: 25.0 mg/kg/injection, schedule: Q01DX Z (ip), vehicle: carboxymethylcellulose (CMC)
  T/C: 206 % of control
dose: 50.0 mg/kg/injection, schedule: Q01DX Z (ip), vehicle: carboxymethylcellulose (CMC)
  T/C: 268 % of control
dose: 62.0 mg/kg/injection, schedule: Q01DX Z (ip), vehicle: carboxymethylcellulose (CMC)
  T/C: 282 % of control
dose: 62.0 mg/kg/injection, schedule: Q01DX Z (oral), vehicle: carboxymethylcellulose (CMC)
  T/C: 120 % of control
dose: 100.0 mg/kg/injection, schedule: Q01DX Z (ip), vehicle: carboxymethylcellulose (CMC)
  T/C: 106 % of control
dose: 125.0 mg/kg/injection, schedule: Q01DX Z (ip), vehicle: carboxymethylcellulose (CMC)
  T/C: 214 % of control
dose: 125.0 mg/kg/injection, schedule: Q01DX Z (oral), vehicle: carboxymethylcellulose (CMC)
  T/C: 97 % of control
dose: 150.0 mg/kg/injection, schedule: Q01DX Z (ip), vehicle: carboxymethylcellulose (CMC)
  T/C: 94 % of control
dose: 175.0 mg/kg/injection, schedule: Q01DX Z (ip), vehicle: carboxymethylcellulose (CMC)
  T/C: 115 % of control
[7]
  T/C: 109 % of control
dose: 250.0 mg/kg/injection, schedule: Q01DX Z (oral), vehicle: carboxymethylcellulose (CMC)
  T/C: 103 % of control
dose: 300.0 mg/kg/injection, schedule: Q01DX Z (oral), vehicle: carboxymethylcellulose (CMC)
  T/C: 103 % of control

## CCOC(=O)C(CCC(=O)O)NC(=O)OCc1ccccc1 (stereo unspecified)
dose: 50.0 mg/kg/injection, schedule: Q04DX003 (ip), vehicle: Klucel (hydroxypropylcellulose) (HPC)
  T/C: 94 % of control
[8]
  T/C: 101 % of control
[9]
  T/C: 94 % of control and 100 % of control
dose: 200.0 mg/kg/injection, schedule: Q01DX009 (ip), vehicle: Klucel (hydroxypropylcellulose) (HPC)
  T/C: 106 % of control
[10]
  T/C: 93 % of control

## Cc1ccc(Nc2cc(=O)[nH]c(=O)[nH]2)c(C)c1
dose: 18.75 mg/kg/injection, schedule: Q01DX001 (ip), vehicle: saline with Tween-80
  T/C: 97 % of control
dose: 37.5 mg/kg/injection, schedule: Q01DX001 (ip), vehicle: saline with Tween-80
  T/C: 90 % of control
dose: 75.0 mg/kg/injection, schedule: Q01DX001 (ip), vehicle: saline with Tween-80
  T/C: 90 % of control

## BrC1(Br)C2CC3C(CC21)C3(Br)Br (stereo unspecified)
dose: 100.0 mg/kg/injection, schedule: Q01DX001 (ip), vehicle: saline sonified
  T/C: 98 % of control
dose: 200.0 mg/kg/injection, schedule: Q01DX001 (ip), vehicle: saline sonified
  T/C: 96 % of control
dose: 400.0 mg/kg/injection, schedule: Q01DX001 (ip), vehicle: saline sonified
  T/C: 98 % of control

## C=CCc1ccc(OC(=O)Nc2ccccc2)c(OC)c1
dose: 100.0 mg/kg/injection, schedule: Q04DX002 (ip), vehicle: Klucel (hydroxypropylcellulose) (HPC)
  T/C: 87 % of control
dose: 200.0 mg/kg/injection, schedule: Q04DX002 (ip), vehicle: Klucel (hydroxypropylcellulose) (HPC)
  T/C: 87 % of control
dose: 400.0 mg/kg/injection, schedule: Q04DX002 (ip), vehicle: Klucel (hydroxypropylcellulose) (HPC)
  T/C: 87 % of control

## CSc1ncnc2c1nnn2C1CC(CO)C(O)C1O (stereo unspecified)
[4]
  T/C: 95 % of control
[5]
  T/C: 101 % of control
[6]
  T/C: 102 % of control

## COc1ccc(CCO)cc1
[1]
  T/C: 92 % of control
[2]
  T/C: 101 % of control
[3]
  T/C: 95 % of control

## O=CN(O)CC(=O)O.[Ni]
dose: 6.25 mg/kg/injection, schedule: Q01DX009 (ip), vehicle: saline
  T/C: 105 % of control
dose: 12.5 mg/kg/injection, schedule: Q01DX009 (ip), vehicle: saline
  T/C: 109 % of control

## C/C(=N\O)c1ccc2nc(C)cc(Cl)c2c1
dose: 100.0 mg/kg/injection, schedule: Q01DX001 (ip), vehicle: saline
  T/C: 102 % of control
dose: 200.0 mg/kg/injection, schedule: Q01DX001 (ip), vehicle: saline
  T/C: 109 % of control
dose: 400.0 mg/kg/injection, schedule: Q01DX001 (ip), vehicle: saline
  T/C: 95 % of control

## CCC(Br)C(=O)Nc1c(C)cccc1Cl (stereo unspecified)
dose: 25.0 mg/kg/injection, schedule: Q01DX009 (ip), vehicle: Klucel (hydroxypropylcellulose) (HPC)
  T/C: 97 % of control
dose: 50.0 mg/kg/injection, schedule: Q01DX009 (ip), vehicle: Klucel (hydroxypropylcellulose) (HPC)
  T/C: 98 % of control
[8]
  T/C: 94 % of control and 101 % of control
[9]
  T/C: 97 % of control
[10]
  T/C: 95 % of control
dose: 400.0 mg/kg/injection, schedule: Q04DX003 (ip), vehicle: Klucel (hydroxypropylcellulose) (HPC)
  T/C: 97 % of control

## C1CN2CCOC2O1
dose: 100.0 mg/kg/injection, schedule: Q01DX009 (ip), vehicle: saline
  T/C: 101 % of control
dose: 200.0 mg/kg/injection, schedule: Q01DX009 (ip), vehicle: saline
  T/C: 108 % of control
dose: 400.0 mg/kg/injection, schedule: Q01DX009 (ip), vehicle: saline
  T/C: 100 % of control

## O=C(Nc1ccc(Cc2ccc(NC(=O)Nc3cccc(C4=NCCN4)c3)cc2)cc1)Nc1cccc(C2=NCCN2)c1
dose: 111.0 mg/kg/injection, schedule: Q01DX Z (ip), vehicle: carboxymethylcellulose (CMC)
  T/C: 101 % of control
dose: 120.0 mg/kg/injection, schedule: Q01DX Z (ip), vehicle: carboxymethylcellulose (CMC)
  T/C: 98 % of control
dose: 166.0 mg/kg/injection, schedule: Q01DX Z (ip), vehicle: carboxymethylcellulose (CMC)
  T/C: 101 % of control
dose: 180.0 mg/kg/injection, schedule: Q01DX Z (ip), vehicle: carboxymethylcellulose (CMC)
  T/C: 98 % of control
[7]
  T/C: 107 % of control
dose: 270.0 mg/kg/injection, schedule: Q01DX Z (ip), vehicle: carboxymethylcellulose (CMC)
  T/C: 101 % of control
dose: 375.0 mg/kg/injection, schedule: Q01DX Z (ip), vehicle: carboxymethylcellulose (CMC)
  T/C: 107 % of control
dose: 405.0 mg/kg/injection, schedule: Q01DX Z (ip), vehicle: carboxymethylcellulose (CMC)
  T/C: 100 % of control
